Results taken from paper PMC7421780 (Future Medicinal Chemistry, 2020).
Values after ≈ are worked out from the molar mass of the structure shown.

Tests used:
Assay in all cases: microbe, parasite or virus in culture
Assay type in all cases: cell-based
Details in all cases: Mycobacterium tuberculosis
[1] = system: INH-R2 (Mtb strain resistant to isoniazid)
[2] = system: RIF-R2 (Mtb strain resistant to rifampicin)
[3] = system: INH-R1 (Mtb strain resistant to isoniazid)
[4] = system: FQ-R1 (Mtb strain resistant to fluoroquinolone)
[5] = system: RIF-R1 (Mtb strain resistant to rifampicin)

| Structure (SMILES) | IC50 [1] [µM] | IC90 [1] [µM] | MIC [1] [µM] | IC50 [2] [µM] | IC90 [2] [µM] | MIC [2] [µM] | IC50 [3] [µM] | IC90 [3] [µM] | MIC [3] [µM] | IC50 [4] [µM] | IC90 [4] [µM] | MIC [4] [µM] | IC50 [5] [µM] | IC90 [5] [µM] | MIC [5] [µM] |
| --- | --- | --- | --- | --- | --- | --- | --- | --- | --- | --- | --- | --- | --- | --- | --- |
| O=[N+]([O-])c1cn(Cc2cccc(Cn3cnc([N+](=O)[O-])c3)n2)cn1 [Compound 2b, 2,6-bis((4-nitro-1H-imidazol-1-yl)methyl)pyridine] | 24 | 28 | 28 (≈ 9.22 µg/mL) | 38 | 61 | 68 (≈ 22.4 µg/mL) | 68 | 90 | 98 (≈ 32.3 µg/mL) | 66 | 92 | 102 (≈ 33.6 µg/mL) | 60 | 160 | 111 (≈ 36.5 µg/mL) |
| O=C(C[n+]1ccn(Cc2cccc(Cn3cc[n+](CC(=O)c4ccc([N+](=O)[O-])cc4)c3)n2)c1)c1ccc([N+](=O)[O-])cc1.[Br-].[Br-] [Compound 4f, 1,1′-(pyridine-2,6-diylbis(methylene))bis(3-(2-(4-nitrophenyl)-2-oxoethyl)-1H-imidazol-3-ium) bromide] | 39 | 75 | 65 | 40 | 120 | > 200 | 46 | 52 | 55 | 49 | 91 | 87 | 35 | 100 | 67 |
| c1cc(Cn2cnc3ccccc32)nc(Cn2cnc3ccccc32)c1 [Compound 5, 2,6-bis((1H-benzo[d]imidazol-1-yl)methyl)pyridine] | > 50 | > 50 | > 50 | > 50 | > 50 | > 50 | > 50 | > 50 | > 50 | > 50 | > 50 | > 50 | > 50 | > 50 | > 50 |
| O=C(C[n+]1cn(Cc2cccc(Cn3c[n+](CC(=O)c4ccccc4)c4ccccc43)n2)c2ccccc21)c1ccccc1.[Br-].[Br-] [Compound 6c, 1,1′-(pyridine-2,6-diylbis(methylene))bis(3-(2-oxo-2-phenylethyl)-1H-benzo[d]imidazol-3-ium) bromide] | 42 | 150 | 110 | 44 | 120 | 100 | 42 | 170 | 120 | 40 | > 200 | 200 | 24 | 110 | 87 |
| O=C(C[n+]1cn(Cc2cccc(Cn3c[n+](CC(=O)c4ccc([N+](=O)[O-])cc4)c4ccccc43)n2)c2ccccc21)c1ccc([N+](=O)[O-])cc1.[Br-].[Br-] [Compound 6f, 1,1′-(pyridine-2,6-diylbis(methylene))bis(3-(2-(4-nitrophenyl)-2-oxoethyl)-1H-benzo[d]imidazol-3-ium) bromide] | 13 | 22 | 25 | 17 | 31 | 30 | 13 | 21 | 24 | 18 | 38 | 38 | 15 | 24 | 25 |
| C[C@H]1COc2c(N3CCN(C)CC3)c(F)cc3c(=O)c(C(=O)O)cn1c23 [Compound C3, Levofloxacin, reference compound] | 0.84 | 1.4 |  | 0.6 | 1.2 | 1.1 (≈ 0.398 µg/mL) | 0.64 | 1.4 | 1.2 (≈ 0.434 µg/mL) | 12 | 22 | 20 (≈ 7.23 µg/mL) | 0.59 | 0.91 |  |
| NNC(=O)c1ccncc1 [Isoniazid, reference compound] | > 200 | > 200 | > 200 | 0.54 | 0.6 | 0.62 (≈ 0.085 µg/mL) | > 200 | > 200 | > 200 | 0.36 | 0.47 | 0.35 (≈ 0.048 µg/mL) | 0.15 | 0.21 | 0.17 (≈ 0.0233 µg/mL) |
| CO[C@H]1/C=C/O[C@@]2(C)Oc3c(C)c(O)c4c(O)c(c(/C=N/N5CCN(C)CC5)c(O)c4c3C2=O)NC(=O)/C(C)=C\C=C\[C@H](C)[C@H](O)[C@@H](C)[C@@H](O)[C@@H](C)[C@H](OC(C)=O)[C@@H]1C [Rifampicin, reference compound] | 0.0047 | 0.012 | 0.065 (≈ 0.0535 µg/mL) | > 50 | > 50 | > 50 |  | 0.022 |  | 0.013 | 0.039 | 0.027 (≈ 0.0222 µg/mL) | 1.2 | 2.3 |  |
